Test results published in patent publication US10012641B2, “G-protein-coupled-receptor-22-transformed cell lines and methods of use thereof to identify binding compounds” (LIBRAMEN NATURALS INC., priority 2014, dated 2018).
Values joined by “and” are separate entries in the source; they are usually repeats but may differ in a detail not shown here. Identical values can stand only once. “Also recorded” adds a separate entry of the source.

What was measured:
[1] = biological target: T1, GPCR22 (Homo sapiens, UniProt Q99680, C425R); assay: Erk 1/2 and Akt phosphorylation by guanosine in 1321N1 human astrocytoma cells transfected with GPCR22 DNA (Western Blot); assay type: cell-based; conditions: guanosine 300 μM, compared to non-GPCR22-transfected 1321N1 cells
T1 construct: A full length cDNA clone of human GPCR22 was provided by Origene Technologies; host or cells: 1321N1 human astrocytoma cells, pCMV vector, transient
Protocol: A full length cDNA clone of human GPCR22 was provided by Origene Technologies. Transient expression in the 1321N1 cell line was performed using a pCMV expression vector. cDNA fragments present in an expression vector (pCMV) is located downstream of a transcriptional promoter capable of driving heterologous gene expression in a variety of mammalian cells. 1321N1 cell lines were transiently transfected with hGPCR22 cloned into pCMV expression vectors (Invitrogen). DNA transfection was performed by lipofection using Lipofectamine (Life Technologies). Twenty-four hours after transfection, the cells were lysed and assayed. RT-PCR analysis using GPCR22 forward: CTCATCTGCTGTTTCCACGA (SEQ. ID NO: 5) and GPCR22 reverse CGGATGTTAAGAGCCTGGAG (SEQ. ID NO: 6), was used to confirm the transfection of GPCR22 (G1) (labelled “1321N1 G1-pCMV Trans”) into 1321N1 cells as shown in FIG. 6a and evidenced by the band at 411 bp. Furthermore, the expression of GPCR22 (labelled “1321N1 G1-pCMV Trans”) in 1321N1 cells as compared to non-G1 transfected cells (labelled “1321N1”) was confirmed by Western Blot analysis using a rabbit polyclonal anti-GPCR22 antibody (NovateinBio, SH-A12465, MA, USA), as shown in FIG. 6b.

[2] = system: non-transfected S2 cells; assay: Fluo-4 AM imaging of intracellular Ca2+ in non-transfected S2 cells; assay type: cell-based, Drosophila; conditions: guanosine versus vehicle, FIGS. 12a, 12d
Protocol: Fluo-4 AM calcium imaging was used to visualize intracellular calcium concentration in the GPRC22-transfected and non-transfected S2 cells. A 2.5 mM stock solution of Fluo-4 Am dye (molecular Probes, Burlington, ON) was prepared in DMSO and 20% Pluronic F-127 and used to within a week. The S2 cell preparations were incubated with a final concentration of 5 μM fluo-4AM and 0.02% Pluronic F-127 in 1 ml S2 culture medium for 20 min at room temperature, then washed to allow for full de-esterification of AM esters. Imaging was carried out on an upright Nikon Eclipse FN-S2N upright fluorescence microscope using 10×/40× objectives with a filter to excite Fluo-4, a dye at 488 nm wavelength (peak excitation=494 nm and peak emission=516 nm) using a Lambda DG-4 illuminator (Sutter Instrument Co., Novato, Calif., USA). Images were captured using a Quantem 512SC camera with a frame rate of 5-10 frames per second and Nikon-NIS Elements, advanced research, imaging software. […] ROIs were selected free hand and encompassed the cell body to be analyzed. The ROIs were tracked and the average pixel intensity was measured in that region for the duration of the recording. […] Intracellular calcium concentration of S2 cells was monitored at room temperature. 20-30 S2 cells were calculated to determine the average overall fluorescence signal intracellular calcium concentration. […]

[3] = system: GPCR22-transfected S2 cells; assay: Actinomycin D-induced apoptosis, Caspase-3 flow cytometry, GPCR22-transfected S2 cells; assay type: cell-based, Drosophila; conditions: 100 μM guanosine before 1 μM actinomycin D; FIGS. 11a-d
Protocol: (§1) In order to determine whether guanosine produced any anti-apoptotic effects through a GPCR22-mediated mechanism, the effect of guanosine on apoptosis in GPCR22-transfected S2 cells was measured using flow cytometry techniques. Briefly, S2 cells were maintained in Schneider's Drosophila medium (GIBCO) supplemented with 10% heat-inactivated fetal calf serum, penicillin and streptomycin. For induction of apoptosis both receptor-transfected and non-transfected S2 cells were incubated in 1 μM actinomycin D (Sigma) for 6 hours at 25° C. Prior to the induction of apoptosis, to the S2 culture medium were either added 100 μM guanosine or the same amount of vehicle. After a 48 hr incubation with guanosine or vehicle, the cells were fixed with 4% PFA for fluorescent-immunostaining. The primary antibody Caspase-3 (10 μg/ml; R&D systems AF835) was incubated at room temperature for 1.5 hr and the secondary antibody (donkey anti rabbit Alexa488 (1:1800) was incubated at room temperature for 1 hr. After rinsing with PBS cells were re-suspend with “PBS+0.5% BSA” solution for flow cytometry reading using a 8 colour, […] (488 nm, 633 nm, 405 nm) FACS (Canto) machine.

[4] = biological target: T2, GPCR22 (G1) receptor (Homo sapiens, UniProt Q99680, C425R); assay: Intracellular cAMP in 1321N1 cell line transfected with GPCR22 (G1) receptor; assay type: cell-based; conditions: increasing concentrations of guanosine, absence and presence of PTX (200 ng/ml, 16 h); FIG. 7e
T2 construct: A full length cDNA clone of human GPCR22 was provided by Origene Technologies; expressed in transfected cells; host or cells: 1321N1 human astrocytoma cells

[5] = system: non-transfected S2 cells; assay: Actinomycin D-induced apoptosis, Caspase-3 flow cytometry, non-transfected S2 cells; assay type: cell-based, Drosophila; conditions: 100 μM guanosine before 1 μM actinomycin D
Protocol: as §1

[6] = biological target: T3, GPCR22 (Rattus norvegicus, UniProt D4A3U0); assay: Guanosine binding in rat astrocytes after inhibition of GPCR22 by siRNA; design: endogenous in cells; host or cells: cultured rat (brain) astrocytes; conditions: astrocytes with GPCR22 inhibited by siRNA; data not shown
Protocol: Transient transfection of siRNAs for the rGPCR22 gene on rat cultured astrocytes and cell extracts were assayed for gene silencing 24 h after transfection was carried out. siRNA duplex specific for the rGPCR22 receptor were designed and chemically synthesized (www.Dharma.com), as well as their non specific control (NSC). Transfection of siRNAs for targeting endogenous genes was carried out using Oligofectamine (Invitrogen, Life Technologies) according to the manufacturer's instruction. Briefly, astrocytes at 60-70% confluence were cultured for 1 day in culture medium without antibiotics. 10 ml siRNA (20 mM) (Dharmacon research, Inc.) were diluted in 175 ml optimem for 5 min at room temperature. In the meantime, 3 ml oligofectamine was mixed in 15 ml optimem for 5 min. RNA interference was performed by mixing diluted oligofectamine and siRNA for 30 min at room temperature and was then added to the cells. The same scheme was performed on other samples using a siRNA-scrambled (NSP=non specific control). Cells were incubated at 37° C. for 24 hours. Twenty-four hours after transfection, the cells were lysed and assayed for gene silencing. The effect of GPCR22 silencing on MAPK and AKT phosphorylation, and cAMP assay was analysed. […]

[7] = biological target: T3, GPCR22; assay: Erk 1/2 and Akt phosphorylation by guanosine in cultured rat astrocytes treated with siRNA for GPCR22 (Western Blot); assay type: cell-based; design: endogenous in cells; host or cells: cultured rat (brain) astrocytes
Protocol: Transient transfection of siRNAs for the rGPCR22 gene on rat cultured astrocytes and cell extracts were assayed for gene silencing 24 h after transfection was carried out. siRNA duplex specific for the rGPCR22 receptor were designed and chemically synthesized (www.Dharma.com), as well as their non specific control (NSC). Transfection of siRNAs for targeting endogenous genes was carried out using Oligofectamine (Invitrogen, Life Technologies) according to the manufacturer's instruction. Briefly, astrocytes at 60-70% confluence were cultured for 1 day in culture medium without antibiotics. 10 ml siRNA (20 mM) (Dharmacon research, Inc.) were diluted in 175 ml optimem for 5 min at room temperature. In the meantime, 3 ml oligofectamine was mixed in 15 ml optimem for 5 min. RNA interference was performed by mixing diluted oligofectamine and siRNA for 30 min at room temperature and was then added to the cells. The same scheme was performed on other samples using a siRNA-scrambled (NSP=non specific control). Cells were incubated at 37° C. for 24 hours. Twenty-four hours after transfection, the cells were lysed and assayed for gene silencing. The effect of GPCR22 silencing on MAPK and AKT phosphorylation, and cAMP assay was analysed.

[8] = biological target: T3, GPCR22; assay: Fluo-4 AM imaging of intracellular Ca2+ in GPCR22-transfected S2 cells; assay type: cell-based; design: expressed in transfected cells; host or cells: Drosophila Schneider 2 (S2) cells, pMT-V5-HisA vector, CuSO4 induction
Protocol: Fluo-4 AM calcium imaging was used to visualize intracellular calcium concentration in the GPRC22-transfected and non-transfected S2 cells. A 2.5 mM stock solution of Fluo-4 Am dye (molecular Probes, Burlington, ON) was prepared in DMSO and 20% Pluronic F-127 and used to within a week. The S2 cell preparations were incubated with a final concentration of 5 μM fluo-4AM and 0.02% Pluronic F-127 in 1 ml S2 culture medium for 20 min at room temperature, then washed to allow for full de-esterification of AM esters. Imaging was carried out on an upright Nikon Eclipse FN-S2N upright fluorescence microscope using 10×/40× objectives with a filter to excite Fluo-4, a dye at 488 nm wavelength (peak excitation=494 nm and peak emission=516 nm) using a Lambda DG-4 illuminator (Sutter Instrument Co., Novato, Calif., USA). Images were captured using a Quantem 512SC camera with a frame rate of 5-10 frames per second and Nikon-NIS Elements, advanced research, imaging software. Intracellular calcium concentration was created in the Nikon-NIS elements program using regions of interest (ROIs) per each experiment. ROIs were selected free hand and encompassed the cell body to be analyzed. The ROIs were tracked and the average pixel intensity was measured in that region for the duration of the recording. These measurements were then exported to Excel and Clampfit for further analysis of frequency and amplitude. Intracellular calcium concentration of S2 cells was monitored at room temperature. 20-30 S2 cells were calculated to determine the average overall fluorescence signal intracellular calcium concentration. The fluorescence intensity was presented as the ratio F1/F0 in which the raw fluorescence intensity signals of a region of interest (ROI) was compared to the first fluorescence signal in that ROI throughout the recording. The Wilcoxon matched pairs t-test was used on two samples with equal variances to determine statistically significant differences at P=0.05. In each set of experiments, the exposure protocols for control and test conditions were identical.

[9] = biological target: T3, GPCR22; assay: [3H]-guanosine binding to GPCR22 protein extracted from transfected S2 cells, competition with cold guanosine; design: expressed in transfected cells; host or cells: Drosophila Schneider 2 (S2) cells, pMT-V5-HisA vector, CuSO4 induction; conditions: 10 nM [3H]-guanosine, 25° C., 75 min, FIG. 14
Protocol: The ability of GPCR22 receptor to bind to guanosine was assessed by performing competitive binding studies in the presence of cold guanosine. GPCR22 protein extracted from transfected […] cells were used in performing receptor-binding studies. The binding of [^3H]-guanosine (“hot” guanosine) to GPCR22 receptor was performed in triplicate in a final volume of 125 μl assay buffer (pH 7.4, 50 mM Tris-HCl, 1 mM EDTA, 5 mM MgCl2, 0.1 mM DTT, 0.1 mM PMSF, 100 mg/ml bacitracin and 5 mg/ml soybean trypsin inhibitor) containing 10 nM [^3H]-guanosine and the following concentrations of unlabeled guanosine (“cold” guanosine) (0.01 μM, 0.1 μM, 1.0 μM, 10 μM, 100 μM and 1 mM) and 50 ug of protein. The incubation of the GPCR22 receptor protein with ligands was carried out at 25° C. for 75 min. At the end of the incubation period, the unbound ligands were separated by vacuum filtration through Whatman GF/B filters. The bound ligand-protein was further washed 3 times with 5 ml of Tris-EDTA buffer, pH 7.4 (50 mM Tris-HCl, 1 mM EDTA). The radioactive filters were placed in plastic counting vials containing 4 ml of scintillation fluid, equilibrated overnight in a dark environment and counted the next day in a Beckman LS5000 liquid scintillation counter Model 1780. Non-specific binding was also calculated by the addition of excess guanosine (10 mM). […]

T3 sequence (D4A3U0 whole entry): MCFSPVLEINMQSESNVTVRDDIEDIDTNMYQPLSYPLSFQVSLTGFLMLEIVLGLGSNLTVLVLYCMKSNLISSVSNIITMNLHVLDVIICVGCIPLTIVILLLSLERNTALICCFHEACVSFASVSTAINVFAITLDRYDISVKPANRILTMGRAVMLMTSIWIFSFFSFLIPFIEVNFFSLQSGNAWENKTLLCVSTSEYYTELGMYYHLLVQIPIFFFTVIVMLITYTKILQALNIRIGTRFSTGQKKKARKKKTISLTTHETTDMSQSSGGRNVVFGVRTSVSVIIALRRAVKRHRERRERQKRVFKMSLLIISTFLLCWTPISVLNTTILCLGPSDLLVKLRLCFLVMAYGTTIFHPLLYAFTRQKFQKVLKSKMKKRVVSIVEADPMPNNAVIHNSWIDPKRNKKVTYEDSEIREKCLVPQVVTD
T1 sequence (Q99680 whole entry C425R): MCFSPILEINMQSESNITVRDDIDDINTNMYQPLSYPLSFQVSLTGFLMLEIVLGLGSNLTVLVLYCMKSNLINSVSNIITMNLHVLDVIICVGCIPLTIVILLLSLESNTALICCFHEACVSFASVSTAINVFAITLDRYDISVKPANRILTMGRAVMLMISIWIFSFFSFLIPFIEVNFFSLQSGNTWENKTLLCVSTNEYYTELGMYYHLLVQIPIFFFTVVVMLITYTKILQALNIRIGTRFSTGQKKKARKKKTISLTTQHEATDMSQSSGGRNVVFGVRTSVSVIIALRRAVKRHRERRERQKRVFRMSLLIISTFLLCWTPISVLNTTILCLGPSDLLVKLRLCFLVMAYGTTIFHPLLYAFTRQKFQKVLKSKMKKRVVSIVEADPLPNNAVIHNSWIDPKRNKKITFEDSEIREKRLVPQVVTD
T2 sequence (Q99680 whole entry C425R): as above

Nc1nc2c(ncn2[C@@H]2O[C@H](CO)[C@@H](O)[C@H]2O)c(=O)[nH]1 [guanosine]
phosphorylation of Erk 1/2 ([1]; FIG. 7c): resulted in phosphorylation of both Erk 1/2 and Akt | phosphorylation of Akt ([1]; FIG. 7d): resulted in phosphorylation of both Erk 1/2 and Akt | intracellular Ca^2+ level [2]: does not induce; also recorded: had no effect | protection from actinomycine-induced apoptotic cell death (Caspase-3) [3]: protected transfected S2 cells from apoptotic cell death | intracellular cAMP levels [4]: increase intracellular cAMP levels | protection from actinomycine-induced apoptotic cell death (Caspase-3) [5]: had no effect | guanosine binding [6]: abolish | activation of intracellular signaling by guanosine ([7]; astrocytes with GPCR22 inhibited by siRNA, data not shown): abolish | phosphorylation of Erk 1/2 ([7]; guanosine 300 μM, astrocytes treated with si-RNA for GPCR22, FIG. 7a): inhibited | phosphorylation of Akt ([7]; guanosine 300 μM, astrocytes treated with si-RNA for GPCR22, FIG. 7b): inhibited | time of intracellular calcium increase after adding guanosine ([8]; GPCR22-transfected S2 cells): ≤ 2 min | intracellular Ca^2+ level ([8]; GPCR22-transfected S2 cells, FIGS. 12b, 12c, 15): elevate intracellular Ca^2+ levels; also recorded: significantly increases intracellular calcium level | guanosine dose giving peak intracellular calcium increase ([8]; GPCR22-transfected S2 cells, low dose 0.1 μM to 10 μM, FIG. 13g): 5 µM | intracellular Ca^2+ ([8]; guanosine 25 μM, time point 1 min, FIG. 13e): significant increase | intracellular Ca^2+ fluorescence ([8]; guanosine 100 μM, imaging at 0, 0.5, 1 and 2 min, FIGS. 13a-d): fast and transient fluorescence increase | intracellular Ca^2+ response across high doses ([8]; high dose guanosine 25 μM-400 μM, time point 1 min, FIG. 13f): no significant difference | Bmax [9]: 1.05±0.12 pmol mg^−1 protein and 1.057 pmol mg^−1 protein | Kd ([9]; single high affinity binding site): 171 ± 39.8 nM
